# Experimental data reported in article PMC5486949 (SLAS discovery, 2017).
# Key:
# Assay type in all cases: cell-based, human
# [1] = tested on: PGC/ERR cell line (HEK293T); experiment: Cell viability assay multiplexed with PGC/ERR antagonist mode assay; details: Homo sapiens, HEK-293T, read-out: PGC-1α/ERRα (Viability) IC50
# [2] = tested on: PGC-1α/ERRα; experiment: PGC/ERR luciferase reporter gene assay, antagonist mode; details: Homo sapiens
# [3] = tested on: ERR cell line (HEK293T); experiment: Cell viability assay multiplexed with ERR antagonist mode assay; details: Homo sapiens, HEK-293T, read-out: ERRα (Viability) IC50
compound,measurement,setting,value
C=C(C)[C@H]1Cc2c(ccc3c2O[C@@H]2COc4cc(OC)c(OC)cc4[C@@H]2C3=O)O1 [Rotenone],IC50,[1],6680 nM
same,AC50,[2]; read-out: AC50 PGC/ERR ↓,74.1 nM
same,IC50,[2]; read-out: PGC-1α/ERRα (Antagonist) IC50,40 nM
same,IC50,[3],1330 nM
